The values that follow come from patent US8158670B2 (priority 1996, dated 2012).

“Also recorded” adds a separate entry of the source.

Experiment [1] concerns Vascular smooth muscle (BO54) cells. The format is cell-based, baboon.
Experiment [2] deals with vascular smooth muscle cells. The experiment in a line: In vitro DNA (3H-thymidine) and protein (3H-leucine) synthesis inhibition. The settings on record: 24 hour assays, 5% FBS. The format is cell-based. The protocol: The ability of various therapeutic agents to inhibit DNA synthesis and protein synthesis in vascular smooth muscle cells was tested. ^3H-leucine and ^3H-thymidine uptake and cytotoxicity assays were conducted in accordance with the following protocols.
5 minute exposure: ^3H-leucine uptake: Vascular smooth muscle cells at 40,000 cells/ml were seeded in sterile 24 well plates at 1 ml/well. The plates were incubated overnight at 37° C., 5% CO2, 95% air in a humidified atmosphere (saturation). Log dilutions of the therapeutic agent of interest were incubated with the vascular smooth muscle cells for 5 minutes or 24 hours. […] Vials were counted on a Beckman LS2800 liquid scintillation counter interfaced with Beckman “Data Capture” software for conversion to a Lotus 1-2-3® file and analysis using Lotus 1-2-3®.
5 minute exposure: ^3H-thymidine uptake: Vascular smooth muscle cells were incubated in complete medium with 5% FBS (Gibco) overnight at 37° C. in a humidified, 5% CO2 environment in sterile 24 well plates. […] The cells were visually scored for viability and cell number. […] Vials were counted on a Beckman LS2800 liquid scintillation counter interfaced with Beckman “Data Capture” software for conversion to a Lotus 1-2-3® file and analysis using Lotus 1-2-3®.

Experiment [3] relates to vascular smooth muscle cells of balloon-traumatized arteries. The format is in vivo, pig. As to conditions: pig, in vivo.
Experiment [4] deals with target (BO54 and M14) and non-target (HT29) cells. The format is cell-based.

`CC(=O)O[C@@H]1/C=C\[C@@](C)(O)C(=O)[C@@H](C)C/C=C\[C@H]2[C@H](O)C(C)=C(C)[C@H]3C(Cc4ccccc4)NC(=O)[C@]132` (stereo partly shown) [cytochalasin C]: the “minimum effective dose (MED)” value in experiment [1] stood at 0.01 µg/mL.
For `CN[C@@H]1C[C@H]2O[C@@](C)([C@@H]1OC)n1c3ccccc3c3c4c(c5c6ccccc6n2c5c31)C(=O)NC4` [staurosporin], in experiment [2], the “therapeutic range: 3H-leucine (protein synthesis) versus 3H-thymidine (DNA synthesis) inhibition” value is “exhibits a differential between ^3H-leucine and ^3H-thymidine uptake”. Besides, the “BRDU uptake (cell proliferation)” value in experiment [3] is recorded as “inhibits target cell proliferation; also recorded: inhibited BRDU uptake (i.e., cell proliferation) without killing the vascular smooth muscle cells”.
On to Pseudomonas exotoxin [PE], for which the “metabolic activity measured in the MTT assay” value in experiment [4] was “nonspecific cytotoxicity”.
